Assay results taken from PMC12951562, “SH2scan: Mapping SH2 Domain-Ligand Binding Selectivity for Inhibitors and Degraders” (Journal of Medicinal Chemistry, 2026).
Where two headings read alike, the source gives them in different places. Non-standard residues stand in square brackets, D forms with d. Residues, ends and D or L forms follow the SMILES beside them. *: point of attachment. pY = N[C@@H](Cc1ccc(OP(=O)(O)O)cc1)C(=O)O; Caffeoyl = O=C(/C=C/c1ccc(O)c(O)c1)*

What was measured:
[1] = molecular target: T1, STAT3(S614R)-nonphosphorylated (Homo sapiens, UniProt P40763, S614R); experiment: biochemical; type: binding
T1 construct: made in house; host or cells: HEK293 (transient transfection), unpurified extract, dephosphorylated by endogenous phosphatases

[2] = molecular target: T2, STAT3(Y640F)-nonphosphorylated (Homo sapiens, UniProt P40763, Y640F); experiment: biochemical; type: binding
T2 construct: made in house; host or cells: HEK293 (transient transfection), unpurified extract, dephosphorylated by endogenous phosphatases

SYK(SH2dom1.dom2.) = molecular target: T3, SYK(SH2dom1.dom2.) (Homo sapiens, UniProt P43405); type: binding; conditions: primary screen, 10 μM
T3 construct: the SH2 domains for these targets are expressed in tandem constructs; made in house; host or cells: HEK293 (transient transfection), unpurified extract

PTPN11(SH2dom.N-term.) = molecular target: T4, PTPN11(SH2dom.N-term.) (Homo sapiens, UniProt Q06124); type: binding; conditions: primary screen, 10 μM
T4 construct: SH2dom.N-term. denotes SH2 domain closest to N-terminus of protein; made in house; host or cells: HEK293 (transient transfection, unpurified extract)
T4 sequence (Q06124 6-102 limits assumed): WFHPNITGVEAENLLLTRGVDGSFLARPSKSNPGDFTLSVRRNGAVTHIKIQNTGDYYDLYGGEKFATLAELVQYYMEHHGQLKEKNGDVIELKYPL

STAT5A = molecular target: T5, STAT5A (Homo sapiens, UniProt P42229); experiment: biochemical; type: binding
T5 construct: made in house; host or cells: HEK293 (transient transfection), unpurified extract
T5 sequence (P42229 1-794): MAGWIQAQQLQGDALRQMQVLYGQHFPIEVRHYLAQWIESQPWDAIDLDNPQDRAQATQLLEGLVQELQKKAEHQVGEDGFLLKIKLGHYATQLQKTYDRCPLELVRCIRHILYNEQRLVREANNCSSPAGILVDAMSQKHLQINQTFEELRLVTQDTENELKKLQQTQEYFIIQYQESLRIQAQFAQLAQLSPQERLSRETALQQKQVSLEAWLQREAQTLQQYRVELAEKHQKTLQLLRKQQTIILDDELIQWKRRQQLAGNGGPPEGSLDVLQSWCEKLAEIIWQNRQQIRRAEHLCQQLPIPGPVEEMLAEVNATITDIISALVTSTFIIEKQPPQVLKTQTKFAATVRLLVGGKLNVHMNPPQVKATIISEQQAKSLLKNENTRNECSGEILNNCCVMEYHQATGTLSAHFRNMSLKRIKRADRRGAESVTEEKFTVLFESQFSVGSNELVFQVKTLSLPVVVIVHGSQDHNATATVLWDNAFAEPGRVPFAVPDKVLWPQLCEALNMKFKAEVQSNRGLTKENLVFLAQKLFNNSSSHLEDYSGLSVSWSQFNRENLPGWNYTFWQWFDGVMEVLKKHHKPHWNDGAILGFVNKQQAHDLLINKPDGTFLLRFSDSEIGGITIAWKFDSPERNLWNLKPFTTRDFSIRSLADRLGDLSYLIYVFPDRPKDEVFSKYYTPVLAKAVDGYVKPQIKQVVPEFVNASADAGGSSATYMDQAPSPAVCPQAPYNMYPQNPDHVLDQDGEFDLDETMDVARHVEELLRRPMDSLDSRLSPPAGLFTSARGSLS

[3] = molecular target: T6, STAT3(D661Y)-nonphosphorylated (Homo sapiens, UniProt P40763, D661Y); experiment: biochemical; type: binding
T6 construct: made in house; host or cells: HEK293 (transient transfection), unpurified extract, dephosphorylated by endogenous phosphatases

CISH = molecular target: T7, CISH (Homo sapiens, UniProt Q9NSE2); experiment: biochemical; type: binding; conditions: for remaining activity at 10 µM: read-out: percent of DMSO vehicle control
T7 construct: the DNA-tagged SH2 domain concentrations used in this study were <0.1 nM; made in house; host or cells: HEK293 (transient transfection; unpurified extract)
T7 sequence (Q9NSE2 82-163 limits assumed): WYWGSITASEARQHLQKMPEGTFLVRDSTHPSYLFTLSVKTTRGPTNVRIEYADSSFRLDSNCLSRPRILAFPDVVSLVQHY

STAT5B = molecular target: T8, STAT5B (Homo sapiens, UniProt P51692); experiment: biochemical; type: binding
T8 construct: made in house; host or cells: HEK293 (transient transfection), unpurified extract
T8 sequence (P51692 1-787): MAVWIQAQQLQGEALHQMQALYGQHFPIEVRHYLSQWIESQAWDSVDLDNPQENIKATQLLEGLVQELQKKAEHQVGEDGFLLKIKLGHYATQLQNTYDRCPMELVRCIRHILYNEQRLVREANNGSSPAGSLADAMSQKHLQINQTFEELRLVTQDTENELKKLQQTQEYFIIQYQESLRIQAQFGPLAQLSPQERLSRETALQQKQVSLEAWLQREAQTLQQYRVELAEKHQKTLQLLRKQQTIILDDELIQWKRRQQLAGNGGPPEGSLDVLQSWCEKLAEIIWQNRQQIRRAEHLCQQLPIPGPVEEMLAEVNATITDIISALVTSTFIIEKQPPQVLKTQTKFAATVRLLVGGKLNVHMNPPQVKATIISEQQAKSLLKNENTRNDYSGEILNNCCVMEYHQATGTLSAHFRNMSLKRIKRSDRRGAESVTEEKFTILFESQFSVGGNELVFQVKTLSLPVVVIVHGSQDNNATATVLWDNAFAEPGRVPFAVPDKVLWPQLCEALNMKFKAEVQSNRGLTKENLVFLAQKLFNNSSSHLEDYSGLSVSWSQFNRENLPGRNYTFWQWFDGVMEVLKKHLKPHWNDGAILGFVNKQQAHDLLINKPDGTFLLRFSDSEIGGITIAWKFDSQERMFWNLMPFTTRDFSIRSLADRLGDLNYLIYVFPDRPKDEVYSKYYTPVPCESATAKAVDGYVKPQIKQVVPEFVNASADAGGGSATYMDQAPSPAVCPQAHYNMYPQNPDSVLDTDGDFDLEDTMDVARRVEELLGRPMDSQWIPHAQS

STAT3 = molecular target: T9, STAT3 (Homo sapiens, UniProt P40763); experiment: biochemical; type: binding
T9 construct: made in house; host or cells: HEK293 (transient transfection), unpurified extract

ZAP70(SH2dom1.dom2.) = molecular target: T10, ZAP70(SH2dom1.dom2.) (Homo sapiens, UniProt P43403); experiment: biochemical; conditions: for remaining activity at 10 µM: read-out: percent of DMSO vehicle control
T10 sequence (P43403 1-254 limits assumed): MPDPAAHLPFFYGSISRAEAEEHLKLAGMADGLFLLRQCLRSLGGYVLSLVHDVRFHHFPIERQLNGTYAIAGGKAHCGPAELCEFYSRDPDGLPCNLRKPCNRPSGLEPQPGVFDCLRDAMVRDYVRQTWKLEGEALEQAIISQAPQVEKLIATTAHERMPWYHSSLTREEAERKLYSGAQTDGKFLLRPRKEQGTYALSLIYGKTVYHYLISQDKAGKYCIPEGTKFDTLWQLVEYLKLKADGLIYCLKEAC

[4] = read-out: percent of DMSO vehicle control
[5] = primary screen, 10 μM, read-out: percent of DMSO vehicle control

Compound | percent of DMSO vehicle control (SYK(SH2dom1.dom2.)) [%] | percent of DMSO vehicle control (PTPN11(SH2dom.N-term.)) [%] | percent of DMSO vehicle control at 10 µM [1, 4] [%] | percent of DMSO vehicle control at 10 µM [2, 4] [%] | percent of DMSO vehicle control at 10 µM (STAT5A; [4]) [%] | percent of DMSO vehicle control at 10 µM [3, 4] [%] | remaining activity at 10 µM (CISH) [%] | percent of DMSO vehicle control at 10 µM (STAT5B; [4]) [%] | percent of DMSO vehicle control at 10 µM (STAT3; [4]) [%] | remaining activity at 10 µM (ZAP70(SH2dom1.dom2.)) [%] | also measured
CC[C@H](C)[C@H](NC(=O)[C@H](CCC(=O)O)NC(=O)[C@H](CCC(=O)O)NC(=O)[C@H](Cc1ccc(OP(=O)(O)O)cc1)NC(C)=O)C(=O)N[C@@H](CCC(=O)O)C(N)=O [Ac-pYEEIE-NH2] (Ac-[pY]EEIE-NH2) | 126.1 | 116.6 | – | – | – | – | – | – | – | – | percent of DMSO vehicle control ([1]; primary screen, 10 μM): 96.3±8.9%; percent of DMSO vehicle control ([2]; primary screen, 10 μM): 156.0%; percent of DMSO vehicle control (STAT5A; primary screen, 10 μM): 94.4±4.9%; percent of DMSO vehicle control ([3]; primary screen, 10 μM): 91.4±3.8%; percent of DMSO vehicle control (CISH; primary screen, 10 μM): 131.9%; percent of DMSO vehicle control (STAT5B; primary screen, 10 μM): 21.8±4.7%; percent of DMSO vehicle control (STAT3; primary screen, 10 μM): 151.4%
CC(=O)N[C@@H](Cc1ccc(CP(=O)(O)O)cc1)C(=O)NC1(C(=O)N[C@@H](CC(N)=O)C(=O)NCCCc2c(O)ccc3ccccc23)CCCCC1 [CGP78850] | 85.1±0.1 | 125.2±9.1 | 82.4 ± 3.2 | 118 ± 3.3 | 84.9 ± 21 | 97.4 ± 6.3 | 117 ± 15.1 | 89.6 ± 6.1 | 80.9 ± 6.4 | 91.6 ± 5.3 | –
CC[C@H](C)[C@H](NC(=O)[C@H](CCC(=O)O)NC(=O)[C@H](CCC(=O)O)NC(=O)[C@H](Cc1ccc(OP(=O)(O)O)cc1)NC(=O)/C=C/c1ccc(O)c(O)c1)C(=O)N[C@@H](CCC(=O)O)C(=O)O [Caffeic acid-pYEEIE] (Caffeoyl-[pY]EEIE-OH) | 72.6±6.4 | 92.8±10.0 | 81.4 ± 6.7 | 131 ± 28.4 | 6.2 ± 0.4 | 108 ± 9.3 | 4.9 ± 6.9 | 19.3 ± 2.8 | 102 ± 22.8 | 32.3 ± 1.6 | Kd (STAT5A): 4.02 ± 1.5 µM; Kd (CISH): 0.43 ± 0.98 µM; Kd (STAT5B): 4.2 ± 2.8 µM; Kd (ZAP70(SH2dom1.dom2.)): 6.9 ± 0.0038 µM
O=C(CCl)Nc1cccc(CNC(=O)[C@H](Cc2ccc(OP(=O)(O)O)cc2)NC(=O)Cc2ccc(F)cc2)c1 [MN551] | 61.9±4.0 | 85.0±0.9 | – | – | – | – | – | – | – | 33.5 | remaining activity at 10 µM [1, 5]: 95.7 ± 8.1%; remaining activity at 10 µM [2, 5]: 49 ± 5.7%; remaining activity at 10 µM (STAT5A; [5]): 39 ± 0.8%; remaining activity at 10 µM [3, 5]: 171%; Kd (CISH; dose-response, read-out: KD): 0.046 µM; remaining activity at 10 µM (CISH; primary screen, 10 μM): 3.2 ± 4.3%; remaining activity at 10 µM (STAT5B; [5]): 49.1 ± 7.6%; remaining activity at 10 µM (STAT3; [5]): 67.8%
